In patent US12275722B2, “Process of reworking a crystalline form of a glycine transport inhibitor” (Boehringer Ingelheim International GmbH, priority 2020, dated 2025):
One block for each compound: values may come before it.

Columns and labels:
[1] = Bulk density of the dried/homogenized Compound batches; format: physicochemical; conditions: reworked (dried, homogenized) drug substance batch
[2] = Water sorption (dynamic vapor sorption), water-uptake; format: physicochemical; conditions: 25° C., 90% relative humidity for 6 hours under humid nitrogen purge
Experimental: Water sorption isotherms can be determined using a dynamic vapor sorption system (Advantage, DVS, London, UK). The samples are subjected to 0 to 90% relative humidity (RH) stepwise with a step size of 10% at 25° C. Each sample is equilibrated at each RH step for at least 60 min, and equilibrium is assumed if weight increase is less than 0.1% within one minute, and the maximum duration on each RH is 6 hours. Therefore, each sample is held at a given RH for 1 to 6 hours depending on how fast the equilibrium is reached.

SMILES: C[C@@H](Oc1ccc(S(C)(=O)=O)cc1C(=O)N1C[C@@H]2C[C@]2(c2cc(C(F)(F)F)on2)C1)C(F)(F)F [Batch 1TA]
Bulk density ([1]; listed as 1TA): 0.17 g/mL

SMILES: C[C@@H](Oc1ccc(S(C)(=O)=O)cc1C(=O)N1C[C@@H]2C[C@]2(c2cc(C(F)(F)F)on2)C1)C(F)(F)F [Batch 1TB]
Bulk density ([1]; listed as 1TB): 0.16 g/mL

SMILES: C[C@@H](Oc1ccc(S(C)(=O)=O)cc1C(=O)N1C[C@@H]2C[C@]2(c2cc(C(F)(F)F)on2)C1)C(F)(F)F [Batch 2TA]
Bulk density ([1]; listed as 2TA): 0.17 g/mL

SMILES: C[C@@H](Oc1ccc(S(C)(=O)=O)cc1C(=O)N1C[C@@H]2C[C@]2(c2cc(C(F)(F)F)on2)C1)C(F)(F)F [Batch 2TB]
Bulk density ([1]; listed as 2TB): 0.2 g/mL

SMILES: C[C@@H](Oc1ccc(S(C)(=O)=O)cc1C(=O)N1C[C@@H]2C[C@]2(c2cc(C(F)(F)F)on2)C1)C(F)(F)F [Batch 3TA]
Bulk density ([1]; listed as 3TA): 0.18 g/mL

SMILES: C[C@@H](Oc1ccc(S(C)(=O)=O)cc1C(=O)N1C[C@@H]2C[C@]2(c2cc(C(F)(F)F)on2)C1)C(F)(F)F [Batch 3TB]
Bulk density ([1]; listed as 3TB): 0.17 g/mL

SMILES: C[C@@H](Oc1ccc(S(C)(=O)=O)cc1C(=O)N1C[C@@H]2C[C@]2(c2cc(C(F)(F)F)on2)C1)C(F)(F)F [Batch 4TA]
Bulk density ([1]; listed as 4TA): 0.22 g/mL

SMILES: C[C@@H](Oc1ccc(S(C)(=O)=O)cc1C(=O)N1C[C@@H]2C[C@]2(c2cc(C(F)(F)F)on2)C1)C(F)(F)F [Batch 4TB]
Bulk density ([1]; listed as 4TB): 0.17 g/mL

SMILES: C[C@@H](Oc1ccc(S(C)(=O)=O)cc1C(=O)N1C[C@@H]2C[C@]2(c2cc(C(F)(F)F)on2)C1)C(F)(F)F [Batch 5]
Bulk density ([1]; listed as 5): 0.14 g/mL

SMILES: C[C@@H](Oc1ccc(S(C)(=O)=O)cc1C(=O)N1C[C@@H]2C[C@]2(c2cc(C(F)(F)F)on2)C1)C(F)(F)F [Batch 6]
Bulk density ([1]; listed as 6): 0.15 g/mL

SMILES: C[C@@H](Oc1ccc(S(C)(=O)=O)cc1C(=O)N1C[C@@H]2C[C@]2(c2cc(C(F)(F)F)on2)C1)C(F)(F)F [Batch 17102]
Bulk density ([1]; listed as 17102): 0.35 g/mL

SMILES: C[C@@H](Oc1ccc(S(C)(=O)=O)cc1C(=O)N1C[C@@H]2C[C@]2(c2cc(C(F)(F)F)on2)C1)C(F)(F)F [Batch 17103]
Bulk density ([1]; listed as 17103): 0.50 g/mL

SMILES: C[C@@H](Oc1ccc(S(C)(=O)=O)cc1C(=O)N1C[C@@H]2C[C@]2(c2cc(C(F)(F)F)on2)C1)C(F)(F)F [Batch 17104]
Bulk density ([1]; listed as 17104): 0.23 g/mL

SMILES: C[C@@H](Oc1ccc(S(C)(=O)=O)cc1C(=O)N1C[C@@H]2C[C@]2(c2cc(C(F)(F)F)on2)C1)C(F)(F)F [Batch 18105]
Bulk density ([1]; listed as 18105): 0.12 g/mL

SMILES: C[C@@H](Oc1ccc(S(C)(=O)=O)cc1C(=O)N1C[C@@H]2C[C@]2(c2cc(C(F)(F)F)on2)C1)C(F)(F)F [Batch 18106]
Bulk density ([1]; listed as 18106): 0.15 g/mL

SMILES: C[C@@H](Oc1ccc(S(C)(=O)=O)cc1C(=O)N1C[C@@H]2C[C@]2(c2cc(C(F)(F)F)on2)C1)C(F)(F)F [Batch 18107]
Bulk density ([1]; listed as 18107): 0.14 g/mL

SMILES: C[C@@H](Oc1ccc(S(C)(=O)=O)cc1C(=O)N1C[C@@H]2C[C@]2(c2cc(C(F)(F)F)on2)C1)C(F)(F)F [Batch 1098942]
Bulk density ([1]; listed as 8942): 0.16 g/mL

Now from value to compound:

Bulk density ([1]; listed as 8943): 0.14 g/mL
SMILES: C[C@@H](Oc1ccc(S(C)(=O)=O)cc1C(=O)N1C[C@@H]2C[C@]2(c2cc(C(F)(F)F)on2)C1)C(F)(F)F [Batch 1098943]

Bulk density ([1]; listed as 8954): 0.15 g/mL
SMILES: C[C@@H](Oc1ccc(S(C)(=O)=O)cc1C(=O)N1C[C@@H]2C[C@]2(c2cc(C(F)(F)F)on2)C1)C(F)(F)F [Batch 1098954]

Bulk density ([1]; listed as 8955): 0.15 g/mL
SMILES: C[C@@H](Oc1ccc(S(C)(=O)=O)cc1C(=O)N1C[C@@H]2C[C@]2(c2cc(C(F)(F)F)on2)C1)C(F)(F)F [Batch 1098955]

Bulk density ([1]; listed as 9100): 0.15 g/mL
SMILES: C[C@@H](Oc1ccc(S(C)(=O)=O)cc1C(=O)N1C[C@@H]2C[C@]2(c2cc(C(F)(F)F)on2)C1)C(F)(F)F [Batch 1099100]

Bulk density ([1]; listed as 9101): 0.14 g/mL
SMILES: C[C@@H](Oc1ccc(S(C)(=O)=O)cc1C(=O)N1C[C@@H]2C[C@]2(c2cc(C(F)(F)F)on2)C1)C(F)(F)F [Batch 1099101]

Bulk density ([1]; listed as 9102): 0.15 g/mL
SMILES: C[C@@H](Oc1ccc(S(C)(=O)=O)cc1C(=O)N1C[C@@H]2C[C@]2(c2cc(C(F)(F)F)on2)C1)C(F)(F)F [Batch 1099102]

Bulk density ([1]; listed as 9103): 0.15 g/mL
SMILES: C[C@@H](Oc1ccc(S(C)(=O)=O)cc1C(=O)N1C[C@@H]2C[C@]2(c2cc(C(F)(F)F)on2)C1)C(F)(F)F [Batch 1099103]

Bulk density ([1]; listed as 9104): 0.15 g/mL
SMILES: C[C@@H](Oc1ccc(S(C)(=O)=O)cc1C(=O)N1C[C@@H]2C[C@]2(c2cc(C(F)(F)F)on2)C1)C(F)(F)F [Batch 1099104]

Water-uptake [2]: 1.4%
SMILES: C[C@@H](Oc1ccc(S(C)(=O)=O)cc1C(=O)N1C[C@@H]2C[C@]2(c2cc(C(F)(F)F)on2)C1)C(F)(F)F [amorphous form, [5-(methylsulfonyl)-2-{[(2R)-1,1,1-trifluoropropan-2-yl]oxy}phenyl]{(1R,5R)-1-[5-(trifluoromethyl)-1,2-oxazol-3-yl]-3-azabicyclo[3.1.0]hex-3-yl}methanone]

Water-uptake [2]: about 0.04%
SMILES: C[C@@H](Oc1ccc(S(C)(=O)=O)cc1C(=O)N1C[C@@H]2C[C@]2(c2cc(C(F)(F)F)on2)C1)C(F)(F)F [polymorph II, [5-(methylsulfonyl)-2-{[(2R)-1,1,1-trifluoropropan-2-yl]oxy}phenyl]{(1R,5R)-1-[5-(trifluoromethyl)-1,2-oxazol-3-yl]-3-azabicyclo[3.1.0]hex-3-yl}methanone]
